The values below come from publication PMC9200803, “Design, synthesis, and biological evaluation of tetrahydroquinolinones and tetrahydroquinolines with anticancer activity” (Scientific Reports, 2022).

The test system of data set [1] is HCT-116 cells. The data set is described as follows: Colony formation (clonogenic) assay. The note with it: HCT-116, 24 h pretreatment, 9 days culture. The format is cell-based, human. As to the method:
A total of 500 HCT-116 cells/well was seeded into six-well plates. After attachment, cells were pretreated with DMSO (1%) or various concentrations of 20d and 19b for 24 h. Following incubation, the medium was changed, and cells were cultured for 9 days. After culturing, cells were washed with phosphate-buffered saline (PBS), fixed with 100% methanol for 30 min, and then stained with 0.5% crystal violet for 15 min. The plates were air-dried, and visible colonies were counted using ImageJ software. The percentage viability of cells was calculated in comparison to the control.

In data set [2] the test system is HCT-116 cells. The data set is described as follows: ROS level, H2DCFDA probe, flow cytometry, HCT-116. The format is cell-based. As for the experimental part: Reactive oxygen species (ROS) affect the cellular redox homeostasis resulting in extensive and irreparable damage and ultimately cell death. Anticancer compounds with cytotoxic properties often cause disturbances in the redox state in cells. Therefore, we performed a time-dependent kinetic analysis of the intracellular ROS level in colon cancer cell lines after treatment with 20d.
The […] ROS levels were determined using an H2DCFDA (2′,7′-dichlorodihydrofluorescein diacetate) probe (Thermo Fisher) following the manufacturer’s protocol. […] DMSO (1%, Merck) and 250 μM H2O2 were used as a negative and positive control, respectively. NAC (500 μM, Sigma-Aldrich) was used as an ROS scavenger to confirm the ROS activity. After treatment with 20d and 19b, cells were incubated with H2DCFDA at 37 °C for 30 min. Subsequently, cells were harvested by trypsinization, rinsed with PBS, and stained with 7-AAD (Thermo Fisher). Finally, the stained cells were analyzed by flow cytometry using a Guava easyCyte 8 cell sorter (Merck Millipore) and FlowJo v10 software.
ROS analysis was performed by seeding the cells into cover glass-bottom 24-well plates for live-cell imaging. Cells were treated with compounds and stained as described above for flow cytometry. […]
A general note: In flow cytometry, cells or beads pass a laser one at a time.

Data set [3] concerns HCT-116 cells. Description: Wound healing assay. Type of data set: cell-based, human. The note with it: HCT-116, 10 and 20 µM, 30 and 36 h of treatment. As to the method: A decrease in cell–cell adhesion correlates with tumor invasion and metastasis. Migration leads to spreading and metastasis of cancer cells and is thus associated with poor prognosis of many types of cancer. Moreover, studies indicate that metastasis is the major cause of death in patients with colorectal cancer (CRC)[58]. To investigate the effect of 20d on migration, HCT-116 cells were cultured and investigated by wound healing assay. The percentage of migration was monitored over time by capturing a series of images after every 6 h up to 36 h of treatment.
The antimigratory properties of 20d were investigated in HCT-116 cell line using wound healing assay. Briefly, cells were seeded and allowed to attach to the Ibidi-silicone insert on a cover glass-bottom 24-well plate for live-cell imaging. Next, the inserts were dislodged, and subsequently, cells were washed with a fresh medium and incubated with various concentrations of 20d in an imaging chamber (cellVivo incubation system, Olympus). For monitoring the migration of cells by live-cell microscopy with time-lapse photography, images were captured every 15 min for 36 h under 10× magnification using a fluorescence microscope (IX83 Inverted Microscope, Olympus) equipped with an XC50 phase-contrast digital color camera (Olympus). The distance between gaps was measured using ImageJ software.

The subject of data set [4] is hMLH1-proficient (MMR+) RKO cells. Description: MTT cell viability assay, hMLH1-proficient (MMR+) RKO. Type of data set: cell-based. The settings on record: Homo sapiens, mean ± SD. The source says:
We further attempted to determine whether 20d-induced cancer cell death was related to the induction of ROS production in HCT-116 cells. For this purpose, we pretreated cells with N-acetyl-L-cysteine (NAC), which is a commonly used antioxidant and ROS scavenger. […] HCT-116 cell line has high-frequency microsatellite instability, which is associated with deficient DNA mismatch repair (MMR)[31]. The MMR system corrects DNA-mismatched and insertion–deletion loop bases generated during DNA replication. One of the key proteins involved in the MMR pathway is MLH1, which is mutated or epigenetically silenced in many MMR-deficient (MMR^–) cells, such as HCT-116[33]. To further determine the selectivity for MMR deficiency, we analyzed the cell viability of human MutL homologue 1 (hMLH1)-deficient (MMR^–) and hMLH1-proficient (MMR^+) RKO human colon carcinoma cell lines. The latter was established by transfecting hMLH1 cDNA into MMR^− RKO cell line[34]. In MMR^– RKO cells, the hMLH1 gene promoter was silenced transcriptionally by hypermethylation. […]
The viability of cells was determined in response to the newly synthesized compounds using the MTT (Sigma-Aldrich) assay. […] Next, the medium was removed, the formazan product formed was dissolved in 100 μl of DMSO, and the absorbance was determined at 540 nm using an ASYS UVM340 microplate reader (Biochrom Ltd.). […]

Consider `O=C(Nc1cccc(F)c1)OC1CCCc2c(-c3ccccc3)cc(=O)[nH]c21` (centres unmarked) [Compound 20d, (2-oxo-4-phenyl-5,6,7,8-tetrahydroquinolin-8-yl) N-(3-fluorophenyl)carbamate], for which, in the data set with HCT-116 cells [1], the formation of colonies result is “effectively inhibited the formation of colonies in a concentration-dependent manner”. Also, in the data set with HCT-116 cells [2] (HCT-116, IC50 concentration, 1-24 h), the “increase in ROS level compared to vehicle” value is recorded as ~ 30%. The “cytotoxic effect after pretreatment with NAC” value in the data set on HCT-116 cells [2] (HCT-116, NAC 500 μM) is recorded as “NAC diminished the cytotoxic effect”. In addition, the inhibition of migration with HCT-116 cells [3] was 30–50%. Further, in data set [4], the IC50 was 4.78 ± 0.38 µM.

By IC50 is commonly meant the concentration that gives 50% inhibition. A low value points to inhibition by little substance.
